SMILES strings stand for the structures. Counter-ions that a name gives are not always drawn.

Sequence of Proton Pump (H^+/K^+-ATPase) (P19156 2-1034 limits assumed): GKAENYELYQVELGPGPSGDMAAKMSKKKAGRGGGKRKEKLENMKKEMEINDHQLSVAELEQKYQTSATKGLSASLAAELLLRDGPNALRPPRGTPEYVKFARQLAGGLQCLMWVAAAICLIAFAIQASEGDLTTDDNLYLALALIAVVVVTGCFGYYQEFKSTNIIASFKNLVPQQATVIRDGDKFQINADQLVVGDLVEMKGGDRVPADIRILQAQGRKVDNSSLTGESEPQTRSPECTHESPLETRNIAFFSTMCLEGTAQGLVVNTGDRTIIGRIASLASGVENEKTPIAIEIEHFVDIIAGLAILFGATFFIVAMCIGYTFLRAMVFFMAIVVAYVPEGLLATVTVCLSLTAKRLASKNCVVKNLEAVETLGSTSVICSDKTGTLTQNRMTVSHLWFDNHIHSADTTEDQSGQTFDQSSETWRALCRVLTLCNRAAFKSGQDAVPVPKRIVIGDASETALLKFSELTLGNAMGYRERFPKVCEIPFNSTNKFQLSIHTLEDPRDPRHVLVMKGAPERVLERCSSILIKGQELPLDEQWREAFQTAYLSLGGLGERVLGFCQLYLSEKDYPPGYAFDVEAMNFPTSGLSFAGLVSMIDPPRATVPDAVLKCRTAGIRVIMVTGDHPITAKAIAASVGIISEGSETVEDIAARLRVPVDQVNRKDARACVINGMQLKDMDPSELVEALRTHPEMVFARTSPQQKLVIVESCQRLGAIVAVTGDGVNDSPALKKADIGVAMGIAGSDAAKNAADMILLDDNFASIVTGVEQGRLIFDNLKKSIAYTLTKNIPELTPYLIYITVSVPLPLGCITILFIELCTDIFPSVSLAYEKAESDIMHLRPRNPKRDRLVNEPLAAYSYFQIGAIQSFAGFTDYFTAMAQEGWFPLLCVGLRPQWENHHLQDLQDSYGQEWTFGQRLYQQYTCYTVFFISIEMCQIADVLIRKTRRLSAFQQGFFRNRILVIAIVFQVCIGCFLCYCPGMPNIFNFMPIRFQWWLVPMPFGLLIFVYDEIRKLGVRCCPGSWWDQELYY
Sequence of Proton Pump (H^+/K^+-ATPase) (P18434 whole entry partner): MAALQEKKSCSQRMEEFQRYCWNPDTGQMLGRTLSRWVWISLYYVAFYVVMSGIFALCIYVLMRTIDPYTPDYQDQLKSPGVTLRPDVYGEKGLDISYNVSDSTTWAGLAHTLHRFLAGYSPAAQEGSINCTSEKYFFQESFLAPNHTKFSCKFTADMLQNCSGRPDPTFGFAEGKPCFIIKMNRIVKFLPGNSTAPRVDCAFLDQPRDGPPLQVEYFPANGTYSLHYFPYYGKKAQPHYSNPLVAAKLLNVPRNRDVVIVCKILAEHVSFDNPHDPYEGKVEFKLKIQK

The assay concerns the target Proton Pump (H^+/K^+-ATPase) (Sus scrofa, UniProt P19156). The assay is described as follows: Inhibitory effects on proton pump (H^+/K^+-ATPase) activity. It is filed as biochemical. Particulars: hog gastric vesicles; K^+ stimulated H^+/K^+-ATPase activity; 30 minutes at 37° C.
The compound `COc1cccc(Cn2c(C)c(C)c3cc(C(=O)n4ccnc4)nc(N4CCc5ccccc5C4)c32)c1` [Example 841, [7-(3,4-dihydro-1H-isoquinolin-2-yl)-1-(3-methoxybenzyl)-2,3-dimethyl-1H-pyrrolo[2,3-c]pyridin-5-yl]-(imidazol-1-yl)-methanone hydrochloride] came in with an IC50 of 242 nM. This lies in the sub-micromolar range.
Then `Cc1c(C)n(Cc2cccc(F)c2)c2c(N3CCc4ccc(F)cc4C3C)nccc12` (stereo not drawn) [Example 542, 7-fluoro-2-[1-(3-fluorobenzyl)-2,3-dimethyl-1H-pyrrolo[2,3-c]pyridin-7-yl]-1-methyl-1,2,3,4-tetrahydroisoquinoline hydrochloride], with 150 nM; and `Cc1c(C)n(Cc2cccc(F)c2)c2c(N3CCc4ccccc4C3)nc(CNC3CC3)cc12` [Example 871, N-[7-(3,4-dihydro-1H-isoquinolin-2-yl)-1-(3-fluorobenzyl)-2,3-dimethyl-1H-pyrrolo[2,3-c]pyridin-5-ylmethyl]-cyclopropylamine hydrochloride], with 37 nM; and `Cc1c(C)n(Cc2ccccc2)c2c(N3CCc4ccccc4C3)nc(C(=O)O)cc12` [Example 733, 1-benzyl-7-(3,4-dihydro-1H-isoquinolin-2-yl)-2,3-dimethyl-1H-pyrrolo[2,3-c]pyridin-5-carboxylic acid], with 117 nM.
`Cc1c(C)n(CC(C)C)c2c(N3CCc4ccccc4C3)nc(C(=O)N3CCNCC3)cc12` [Example 815, [7-(3,4-dihydro-1H-isoquinolin-2-yl)-1-isobutyl-2,3-dimethyl-1H-pyrrolo[2,3-c]pyridin-5-yl]-(piperazin-1-yl)-methanone hydrochloride] came in with an IC50 of 29 nM.
Then `Cc1c(C)n(Cc2ccccc2)c2c(N3CCc4ccc(F)cc4C3C)nccc12` (stereo not drawn) [Example 547, 2-(1-benzyl-2,3-dimethyl-1H-pyrrolo[2,3-c]pyridin-7-yl)-7-fluoro-1-methyl-1,2,3,4-tetrahydroisoquinoline hydrochloride], with 130 nM; and `C=CCn1c(C)c(C)c2ccnc(CCc3ccccc3)c21` [Example 448, 1-allyl-2,3-dimethyl-7-phenethyl-1H-pyrrolo[2,3-c]pyridine hydrochloride], with 230 nM.
The figure for `C=CCn1c(C)c(C)c2ccnc(C=Cc3ccccc3)c21` [Example 416, 1-allyl-2,3-dimethyl-7-styryl-1H-pyrrolo[2,3-c]pyridine hydrochloride] is 120 nM; for `COCCn1c(C)c(C)c2ccnc(N3CCc4ccc(F)cc4C3C)c21` (stereo not drawn) [Example 546, 7-fluoro-2-[1-(2-methoxyethyl)-2,3-dimethyl-1H-pyrrolo[2,3-c]pyridin-7-yl]-1-methyl-1,2,3,4-tetrahydroisoquinoline hydrochloride] it is 250 nM; for `C=Cc1ccc(-c2nccc3c(C)c(C)n(Cc4cccc(F)c4)c23)cc1` [Example 243, 1-(3-fluorobenzyl)-2,3-dimethyl-7-(4-vinylphenyl)-1H-pyrrolo[2,3-c]pyridine hydrochloride] it is 90 nM.
Take `Cc1c(C)n(CC2CC2)c2c(CN(C)c3ccc(F)cc3)nccc12` [Example 112, N-(1-cyclopropylmethyl-2,3-dimethyl-1H-pyrrolo[2,3-c]pyridin-7-ylmethyl)-N-(4-fluorophenyl)-methylamine hydrochloride]: half-maximal inhibition (IC50) required 151 nM.
Then `COc1cccc(Cn2c(C)c(C)c3ccnc(N(C)Cc4ccc(F)cc4)c32)c1` [Example 151, 7-[N-(4-fluorobenzyl)-N-methyl]amino-1-(3-methoxybenzyl)-2,3-dimethyl-1H-pyrrolo[2,3-c]pyridine hydrochloride], with 340 nM; and `Cc1cccc(Cn2c(C)c(C)c3cc(CN4CCN(C)CC4)nc(N4CCc5ccccc5C4)c32)c1` [Example 878, 2-[2,3-dimethyl-1-(3-methylbenzyl)-5-(4-methylpiperazin-1-ylmethyl)-1H-pyrrolo[2,3-c]pyridin-7-yl]-1,2,3,4-tetrahydroisoquinoline hydrochloride], with 152 nM; and `Cc1c(C)n(Cc2cccc(Cl)c2)c2c(N3CCc4ccccc4C3)nc(C(N)=O)cc12` [Example 750, 1-(3-chlorobenzyl)-7-(3,4-dihydro-1H-isoquinolin-2-yl)-2,3-dimethyl-1H-pyrrolo[2,3-c]pyridin-5-carboxamide], with 298 nM.
Then `CCn1c(C)c(C)c2ccnc(N3CCc4cc(F)ccc4C3C)c21` (stereo not drawn) [Example 562, 2-(1-ethyl-2,3-dimethyl-1H-pyrrolo[2,3-c]pyridin-7-yl)-6-fluoro-1-methyl-1,2,3,4-tetrahydroisoquinoline hydrochloride], with 58 nM; and `Cc1c(C)n(Cc2cccc(F)c2)c2c(N3CCc4ccccc4C3)nc(Cl)cc12` [Example 657, 5-chloro-[1-(3-fluorobenzyl)-7-(1,2,3,4-tetrahydroisoquinolin-2-yl)]-2,3-dimethyl-1H-pyrrolo[2,3-c]pyridine hydrochloride], with 240 nM.
Then `COCCn1c(C)c(C)c2cc(C(=O)O)nc(N3CCc4ccccc4C3)c21` [Example 734, 7-(3,4-dihydro-1H-isoquinolin-2-yl)-1-(2-methoxyethyl)-2,3-dimethyl-1H-pyrrolo[2,3-c]pyridin-5-carboxylic acid], with 366 nM.
Compound `Cc1c(C)n(Cc2ccc(Cl)cc2)c2c(CN(C)c3ccc(F)cc3)nccc12` [Example 113, N-[1-(4-chlorobenzyl)-2,3-dimethyl-1H-pyrrolo[2,3-c]pyridin-7-ylmethyl]-N-(4-fluorophenyl)-methylamine hydrochloride] had an IC50 of 327 nM.
Then `CCn1c(C)c(C)c2cc(C(=O)N3CCSCC3)nc(N3CCc4ccccc4C3)c21` [Example 808, [7-(3,4-dihydro-1H-isoquinolin-2-yl)-1-ethyl-2,3-dimethyl-1H-pyrrolo[2,3-c]pyridin-5-yl]-(thiomorpholin-4-yl)-methanone hydrochloride], with 55 nM; and `C#CCn1c(C)c(C)c2ccnc(-c3ccc(C=C)cc3)c21` [Example 249, 2,3-dimethyl-1-(prop-2-ynyl)-7-(4-vinylphenyl)-1H-pyrrolo[2,3-c]pyridine hydrochloride], with 50 nM; and `CSc1ccc(-c2nccc3c(C)c(C)n(CC4CC4)c23)cc1` [Example 270, 1-cyclopropylmethyl-2,3-dimethyl-7-(4-methylsulfanylphenyl)-1H-pyrrolo[2,3-c]pyridine hydrochloride], with 450 nM.
Then `COc1cccc(Cn2c(C)c(C)c3cc(N)nc(N4CCc5ccccc5C4)c32)c1` [Example 848, 7-(3,4-dihydro-1H-isoquinolin-2-yl)-1-(3-methoxybenzyl)-2,3-dimethyl-1H-pyrrolo[2,3-c]pyridin-5-amine hydrochloride], with 29 nM; and `CCCn1c(C)c(C)c2ccnc(N(C)Cc3ccc(F)cc3)c21` [Example 150, 7-[N-(4-fluorobenzyl)-N-methyl]amino-2,3-dimethyl-1-propyl-1H-pyrrolo[2,3-c]pyridine hydrochloride], with 340 nM.
The figure for `COc1cccc(Cn2c(C)c(C)c3cc(C(=O)N4CCNCC4)nc(N4CCc5ccccc5C4)c32)c1` [Example 822, [7-(3,4-dihydro-1H-isoquinolin-2-yl)-1-(3-methoxybenzyl)-2,3-dimethyl-1H-pyrrolo[2,3-c]pyridin-5-yl]-(piperazin-1-yl)-methanone hydrochloride] is 23 nM.

(Values after patent publication US7662832B2, “Pyrrolo[2,3-c]pyridine derivatives and processes for the preparation thereof” (priority 2004, dated 2010).)
